Test results published in patent US10220025B1, “Self-emulsifying formulation of CARP-1 functional mimetics” (Florida A&M University, priority 2016, dated 2019).
Entries after “also recorded” stand apart in the source; their conditions may differ. Where two headings read alike, the source gives them in different places.

How the values were obtained:
TNBC and NSCLC cells = conditions: cited from earlier work
[1] = system: MDA-MB-468 TNBC cells, wild type; assay: MTT viability assay, parental MDA-MB-468; type: cell-based, human; conditions: for inhibition of viability compared with CFM-4: 20 μM, 24 h, FIG. 3A
Experimental: (§2) In vitro inhibition of cell growth was assessed by MTT (3-[4, 5-dimethyltiazol-2-yl]-2.5-diphenyl tetrazolium bromide) reagent. Cells (5×10^3) were seeded in a 96-well culture plate and subsequently treated with respective agents at different concentrations as mentioned. Control cells were treated with 0.1% DMSO in culture medium. After treatment, the cells were incubated with 1 mg/ml of MTT reagent at 37° C. for 2-4 hours and then MTT was removed and 50 μL of DMSO was added, followed by colorimetric analysis using a multi-label plate reader at 560 nm (Victor3; PerkinElmer, Wellesley, Mass., USA).

TNBC cells = assay: MTT viability assay, parental TNBC cells (lines not singled out); type: cell-based
Experimental: as §2

[2] = system: HeLa cervical cancer cells; assay: MTT viability assay, HeLa; type: cell-based; conditions: 20 μM; 24 h; FIG. 3A
Source text: The current inventors' previous studies have indicated cancer cell growth inhibitory properties of CFMs in particular CFM-4 and CFM-5 [Puliyappadamba et al.]. […] J. Biomed. Nanotechnol. 2015; 11:1608-1627]. […] J. Biomed. Nanotechnol. 2015; 11:1608-1627]. On the basis of these findings, it was speculated that solubility and/or potency of the CFM-4 scaffold could be improved for its utility as a novel anti-TNBC molecule. To address this possibility, twelve (12) additional analogs of CFM-4 (Table 2) were synthesized using medicinal chemistry based structure activity relationship (SAR) studies. Each of the analog was suspended in DMSO, and their potency was evaluated in cell culture studies utilizing HeLa cervical cancer, MDA-MB-468 TNBC, and H2461 malignant pleural mesothelioma (MPM) cells by MTT based assays. […] Moreover, a 10 μM dose of CFM-4 inhibited MDA-MB-231 and MDA-MB-468 viabilities by ˜30% and 45%, respectively.

HUVECs = assay: in vitro tubule formation (angiogenesis) assay; type: cell-based, human; conditions: 12 hours; FIG. 11A
Experimental: The growth of tubules was monitored over a period of 12 hours. The cells growth in the scratch assay was recorded by photography. Representative photomicrographs of control and treated cells are presented.
It was next investigated whether CFM-4.16 inhibited TNBC cell migration and growth as colonies in soft agar and 3-dimensional cultures in vitro. In addition, an in vitro tubule formation assay was conducted to determine anti-angiogenic properties of CFM-4.16. […] Moreover, treatments with CFM-4 or CFM-4.16 prevented the parental as well as drug (ADR- or cisplatin-) resistant TNBC sublines and the parental and Herceptin-resistant, Her-2-positive SKBR-3 cells from growing in the areas of wound caused by a scratch (FIGS. 11B, 11C, 12A, 12B, 13A, and 13B).

[3] = system: Src, MET, and STAT3 kinases in TNBC cells; assay: Western blot, oncogenic tyrosine kinases; type: cell-based; conditions: parental and drug-resistant human and murine TNBC cells
Experimental: For protein expression analysis, Western blot (WB) experiments were performed according to the standard procedures. The cells were either untreated or treated with various agents either alone or in combinations as indicated. Following treatment durations, the cells were lysed in cell lysis (10×) buffer (#9803; cell signaling) containing 0.1% of protease and phosphatase inhibitor cocktail (Sigma) for 20 min at 4° C. The lysates were centrifuged at 14,000 rpm at 4° C. for 15-20 min to remove debris. Protein concentrations of whole cell lysates were determined using the Protein Assay Kit. Supernatant proteins, 50-100 μg from each sample, were separated by SDS-polyacrylamide gel electrophoresis (SDS-PAGE) and transferred to polyvinylidene difluoride (PVDF) membrane (Bio-rad, Hercules, Calif.) by standard procedures. […] The antibody-bound proteins were visualized by treatment with the chemiluminescence detection reagent according to manufacturer's instructions, followed by exposure to X-ray film (Denville Scientific Inc.). The same membranes were re-probed with the anti-β-actin or anti-α-tubulin antibody, which was used as an internal control for protein loading.

[4] = system: MDA-MB-231 TNBC cells, wild type; assay: MTT viability assay, parental MDA-MB-231; type: cell-based, human
Experimental: as §2

[5] = system: parental and drug-resistant TNBC and SKBR-3 cells; assay: soft-agar clonogenic assay; type: cell-based; conditions: 10 μM; FIGS. 11D, 12C, 12D, 13C
Experimental: A soft-agar sandwich assay was performed. Cells were sandwiched between 0.6% and 0.3% agarose in DMEM medium containing 5% FBS in a six-well chamber (500 cells/chamber), and treated with buffer (Control), or respective agent for noted time and dose at 37° C. humidified CO2 incubator. The colonies from multiple random fields were counted, compared to control and photographed essentially as described before [Jamal S, Cheryan V T, Muthu M, Munie S, Levi E, Ashour A E, Pass H I, Wali A, Singh M, Rishi A K. CARP-1 functional mimetics are a novel class of small molecule inhibitors of malignant pleural mesothelioma cells. PLos One. 2014; 9:e891; Ashour A E, Jamal S, Cheryan V T, Muthu M, Zoheir K M A, Alafeefy A M, Abd-allah A R, Levi E, Tarca A L, Polin L A, Rishi A K. CARP-1 functional mimetics: A novel class of small molecule inhibitors of medulloblastoma cell growth. PLoS One. 2013; 8:e66733; Zhang L, Levi E, Majumder P, Yu Y, Aboukameel A, Du J, Xu H, Mohammad R M, Hatfield J S, Wali A, Adsay V, Majumdar A P N, Rishi A K. Transactivator of transcription tagged cell cycle and apoptosis regulatory protein-1 peptides suppress growth of human breast cancer cells in vitro and in vivo. Mol Cancer Ther. 2007; 6:1661-1672].

solubility observations = type: physicochemical
[6] = system: parental and drug-resistant TNBC and SKBR-3 cells; assay: scratch/wound healing cell migration assay; type: cell-based; conditions: FIGS. 11B, 11C, 12A, 12B, 13A, 13B
Experimental: The TNBC cells migration in the absence or presence of CFMs was measured by the “scratch/wound healing” assay. Cells were seeded in a 6-well plate (˜10,000 cells/well), and when attached, a scratch was created in the cell monolayer using sterile pipette tip. The cells were then allowed to continue growing in the absence (Control) or presence of noted dose of each of the agents for indicated time periods. The cells were photographed at the beginning and at regular intervals during the treatment period, and the images from control cells were compared with the treated cells to determine the migration of the cells essentially as described before [Liang C C, Park A Y, Guan J L In vitro scratch assay: a convenient and inexpensive method for analysis of cell migration in vitro. Nat Protoc. 2007; 2:329-33]. The photomicrographs of the cells were recorded under different magnifications utilizing Zeiss microscope with attached 35 mm camera.

[7] = system: TNBC and non-small cell lung cancer cell-derived xenografts; conditions: SCID mice; cited from earlier work
[8] = system: Adriamycin-resistant (ADR-R) MDA-MB-468 sublines; assay: MTT viability assay, ADR-resistant MDA-MB-468 sublines; type: cell-based, human; conditions: ADR-resistant MDA-MB-468 subline 1; FIG. 5E
Experimental: (§1) Human TNBC MDA-MB-468 and MDA-MB-231, and mouse TNBC 4T1 cells were cultured in the chronic presence (>10 months) of Doxorubicin. The parental, wild-type cells were initially treated with 200 nM Doxorubicin for 2-3 weeks, followed by escalation to 400 nM, 1 μM, and 2 μM doses over a period of 3-4 weeks for each dose till resistance developed and the cells became well adapted to growth in […] of Doxorubicin for their routine culture. In the case of Cisplatin however, the human TNBC MDA-MB-468 and MDA-MB-231 were initially cultured in continuous presence of 1 μM Cisplatin for 3-4 weeks, and the dose was escalated to 1.5 μM and 3 μM over periods of 3-4 weeks for each dose till resistance developed and cells became adapted to routine culture in 3 μM dose. Subsequent, routine maintenance of the resistant cells in the presence of the respective drug was continued and multiple, resistant sublines for each of the TNBC cells were isolated and characterized for their growth inhibitory (GI)50 dose of respective therapeutic by the MTT-based viability assays as below.

[9] = system: Cisplatin-resistant (Cis-R) MDA-MB-231 sublines; assay: MTT viability assay, Cisplatin-resistant MDA-MB-231 sublines; type: cell-based, human
Experimental: as §1

[10] = system: Cisplatin-resistant (Cis-R) MDA-MB-468 sublines; assay: MTT viability assay, Cisplatin-resistant MDA-MB-468 sublines; type: cell-based, human
Experimental: as §1

[11] = system: 4T1 TNBC cells, wild type; assay: MTT viability assay, parental 4T1; type: cell-based, mouse; conditions: FIG. 10; single agent
Experimental: as §2

[12] = system: parental and drug-resistant human TNBC cells; conditions: human, 12 h
Experimental: Control cells were treated with 0.1% DMSO in culture medium.

For `O=C1N(Cc2cccc3ccccc23)c2ccccc2C12NN=C(c1ccccc1)S2` (stereo not shown) [CFM-4.6], the “growth of TNBC and NSCLC cells” value (TNBC and NSCLC cells) is listed as “inhibited growth”.

For `O=C1N(Cc2ccc3ccccc3c2)c2ccccc2C12NN=C(c1ccccc1)S2` (stereo not shown) [CFM-4.8], the “inhibition of viability compared with CFM-4” value [1] was “greater inhibition of viability”.

In the case of `COc1ccc2c(c1)C1(NN=C(c3ccccc3)S1)C(=O)N2Cc1ccccc1Cl` (stereo not shown) [CFM-4.11], the “inhibition of viability compared with CFM-4” value [1] was “greater inhibition of viability”.

For `COc1cccc(C2=NNC3(S2)C(=O)N(Cc2ccccc2Cl)c2ccccc23)c1` (stereo not shown) [CFM-4.17], the “inhibition of viability compared with CFM-4” value [1] was “greater inhibition of viability”, the “activity relative to parent compound CFM-4 or other analogs” value (TNBC cells; SAR screen of twelve analogs) was “superior” and the “inhibition of viability compared with CFM-4” value [2] was “greater inhibition of viability”.

In the case of `O=C1N(Cc2ccccc2Cl)c2ccccc2C12NN=C(c1ccccc1)S2` (stereo not shown) [CFM-4], the “tubule formation by HUVECs compared with untreated control” value (HUVECs) was “disruption of tubule formation”, the “inhibition / loss of cell viability” value ([1]; 10 μM dose) was ~45% and the “activation and/or expression of MET and Src tyrosine kinases” value [3] was “reduced activation and/or expression”. The “inhibition / loss of cell viability” value ([4]; 10 μM dose) was ~30%, the “colonies formed in soft agar” value [5] was “significant reduction in size and number of colonies” and the aqueous solubility (solubility observations) was “poor aqueous solubility”. For the same compound, the “growth of cells in the areas of wound caused by a scratch” value [6] was “prevented”, the “xenograft growth inhibition / T/C, intravenous DMSO+cremophor preparation” value [7] was “failed to inhibit growth; also recorded: lack therapeutic T/C values” and the “effect of siRNA-mediated depletion of CARP-1 on growth inhibition by the compound” value [8] was “interfered with growth inhibition”. The “growth of TNBC and NSCLC cells” value (TNBC and NSCLC cells) was “inhibited growth”.

In the case of `N.N.[Cl][Pt][Cl]` [Cisplatin], the GI50 ([1]; 72 h, Wild type) was ~1.65 µM, the GI50 (TNBC cells; 72 h treatment period, read-out: GI50 doses, both the parental TNBC cell lines) was ~1.65 µM and the GI50 (TNBC cells; parental cells, read-out: GI50 dose, parental cells) was 1.65 µM. The GI50 ([9]; 72 h, Cis-R Clones 1-6, read-out: GI50) was ≥ 150 µM, the “GI50 dose higher than wild-type, parental counterparts” value ([9]; cisplatin-resistant MDA-MB-231 vs parental) was ≥ 90 fold and the GI50 ([9]; read-out: GI50 dose, Cisplatin-resistant MDA-MB-231 sublines) was ≥ 150 µM. The GI50 ([4]; 72 h, Wild type) was ~1.65 µM, the GI50 ([10]; 72 h, Cis-R Clone 1-2, read-out: GI50) was ~6.6 µM and the GI50 ([10]; 72 h, Cis-R Clone 3, read-out: GI50) was ~12 µM. For the same compound, the GI50 ([10]; 72 h, Cis-R Clones 4-6, read-out: GI50) was ~15 µM, the “GI50 dose higher than wild-type, parental cells” value ([10]; cisplatin-resistant MDA-MB-468 vs parental) was 4-9 fold and the GI50 ([10]; read-out: GI50 dose, Cisplatin-resistant MDA-MB-468 sublines) was 6 to 15 µM.

In the case of `Cc1nc(Nc2ncc(C(=O)Nc3c(C)cccc3Cl)s2)cc(N2CCN(CCO)CC2)n1` [Dasatinib], the “reduction / loss of viability” value [11] was ~60% and the “loss of viability, single agent” value [12] was 20-40%.

For `O=C1NC(=O)[C@@H](c2cn3c4c(cccc24)CCC3)[C@@H]1c1c[nH]c2ccccc12` [Tivatinib], the “loss of viability, single agent” value [12] was 20-40%.
